This experiment in a line: DPPH radical scavenging antioxidant test. It is filed as biochemical. Conditions: for Inhibition (radical scavenging inhibition): 0.2 mL DPPH (0.75 mM), compound 3 μM in ethanol, 30 minutes in the dark, 517 nm. As for the experimental part:
The antioxidant properties of the 8-((4-hydroxynaphthalen-1-yl)diazenyl)naphthalene-1,3-disulfonic acid compound were studied by adding 0.2 mL DPPH (0.75 mM)) to 8-((4-hydroxynaphthalen-1-yl)diazenyl)naphthalene-1,3-disulfonic acid (III) (3 μM) in ethanol. After 30 minutes of incubation in the dark, the absorbance was read against a blank at 517 nm. Ascorbic acid (vitamin C) was used as standard antioxidants (positive control). A blank sample was prepared by 0.2 ml of DPPH in 3 mL ethanol. A negative control sample was run using ethanol instead of the sample. The radical scavenging inhibition was calculated using the following equation: […]
A general note: Loss of DPPH colour is used to gauge radical scavenging.

SMILES strings stand for the structures.

The values that follow come from patent US11970437B1, “8-((4-hydroxynaphthalen-1-yl)diazenyl)naphthalene-1,3-disulfonic acid as an antioxidant compound” (KING FAISAL UNIVERSITY, priority 2023, dated 2024).

For the molecule `O=S(=O)(O)c1cc(S(=O)(=O)O)c2c(/N=N/c3ccc(O)c4ccccc34)cccc2c1` [Product III, 8-((4-hydroxynaphthalen-1-yl)diazenyl)naphthalene-1,3-disulfonic acid], the “Inhibition (radical scavenging inhibition)” value came out at 52%. For the same molecule, the “antioxidant potential (vanishing DPPH radical colors at 517 nm)” value (DPPH in vitro test, vitamin C as positive control) was “high potential as an antioxidant compared to vitamin C”.
Consider `O=C1O[C@H]([C@@H](O)CO)C(O)=C1O` [vit c, Ascorbic acid, reference compound], for which the “Inhibition (radical scavenging inhibition)” value turned out to be 74%.
